The structures appear in SMILES notation.

Data on four compounds can be found in US8835354B2, “Composition for controlling plant diseases and method for controlling plant diseases” (Sumitomo Chemical Company, Limited, priority 2008, dated 2014).

Common to all, as to assay type: in vivo
In assay [1] the test system is Pythium irregulare, pathogen of cucumber damping-off. Nature of the assay: Cucumber damping-off seed treatment test with mefenoxam (Test Example 5). The note with it: seventh day. The method, then: (§1) Control value=100(A−B)/A “Equation 1”
(§2) A: Incidence of disease of plant in untreated area
(§3) B: Incidence of disease of plant in treated area
(§4) Generally, the control value expected for the case where the given two kinds of active ingredient compounds are mixed and used for the treatment, the so-called control value expectation is calculated from the following Colby's calculating equation. E=X+Y−(X×Y)/100 “Equation 2”
(§5) X: Control value (%) when active ingredient compound A is used for treatment in M g per hectare or in M g per 100 kg of seeds
(§6) Y: Control value (%) when active ingredient compound B is used for treatment in N g per hectare or in N g per 100 kg of seeds
(§7) E: Control value (%) expected for the case where active ingredient compound A in M g per hectare or in M g per 100 kg of seeds and active ingredient compound B in N g per hectare or in N g per 100 kg of seeds are mixed and used for treatment (hereinbelow referred to as “control value expectation”) “Synergetic effect”=(Actual control value)×100/(Control value expectation) Incidence of disease=(Number of no budding seeds)×100/(Number of total disseminated seeds) “Equation 3”
(§8) An acetone solution of compound (1b) and an acetone solution of mefenoxam were mixed so as to prepare mixed liquids containing compound (1b) and mefenoxam in predetermined concentration. These mixed liquids were adhered on the surface of cucumber (Sagamihanjiro) seeds so as to obtain treated seeds. […] They were allowed to grow in a greenhouse while irrigated and the number of non-budding seeds was checked on the seventh day after the dissemination and the incidence of disease was calculated by Equation 3. The control value was calculated by Equation 1 based on the incidence of disease. In order to calculate the control value, the incidence of disease was also determined in the case in which the plants had not been treated with the agent. […]

Assay [2] deals with Rhizoctonia solani, pathogen of cucumber damping-off. Nature of the assay: Cucumber damping-off seed treatment test (Test Example 1). The note with it: seventh day. An excerpt:
An acetone solution of compound (1b) and an acetone solution of tolclofos-methyl were mixed so as to prepare mixed liquids containing compound (1b) and tolclofos-methyl in predetermined concentration. These mixed liquids were used for smear treatment of cucumber (Sagamihanjiro) seeds using a rotary seed treatment machine (seed dresser, produced by Hans-Ulrich Hege GmbH) so as to obtain treated seeds. The treated seeds were left untouched overnight and then disseminated on the soil which filled a plastic pot and covered with the soil containing Rhizoctonia solani, pathogen of cucumber damping-off, which had been cultured on a bran medium. They were allowed to grow in a greenhouse while irrigated and the number of non-budding seeds was checked on the seventh day after the dissemination and the incidence of disease was calculated by Equation 3. The control value was calculated by Equation 1 based on the incidence of disease. The incidence of disease was also checked in the case in which the plants had not been treated with the agent in order to calculate the control value. […]
Generally, the control value expected for the case where the given two kinds of active ingredient compounds are mixed and used for the treatment, the so-called control value expectation is calculated from the following Colby's calculating equation. […]

In assay [3] the test system is Pythium irregulare, pathogen of cucumber damping-off. Nature of the assay: Cucumber damping-off seed treatment test with metalaxyl (Test Example 4). The following applies: seventh day. On the procedure:
as §1, §2, §3, §4, §5, §6, §7
as §8, with “metalaxyl” for “mefenoxam”

The test system of assay [4] is Sclerotinia homeocarpa, pathogen of dollar spot of turfgrass. Nature of the assay: Turfgrass dollar spot foliage application test (Test Example 2). The following applies: 14 days. On the procedure:
as §1, §2, §3, §4, §5, §6, §7
A plastic pot was filled with sandy soil. Turfgrass (bentgrass penncross) was disseminated and allowed to grow in a green house for 3 weeks. A wettable powder of compound (1b) and a wettable powder of tolclofos-methyl (Grancer Wettable Powder manufactured by Nihon Green & Garden Corporation) were respectively diluted with water and then tank-mixed so as to prepare tank-mixed liquids containing compound (1b) and tolclofos-methyl in predetermined concentration. The tank-mixed liquids were subjected to foliage application such that they could be sufficiently adhered to the leaves of the aforementioned turfgrass. Thereafter, the plants were air-dried. After the plants were air-dried, Sclerotinia homeocarpa, pathogen of dollar spot of turfgrass, which had been cultured on a bran medium was sprayed on the plants to be treated from above. Then, the plants were placed in a greenhouse at 19° C. to 23° C. under high humidity for 14 days, and thereafter control effect was checked. The diseased area ratio of the pot plants on which the agents had been sprayed was determined as the incidence of disease at the time of checking and the control value calculated by Equation 1 based on the incidence of disease thus determined. In order to calculate the control value, the incidence of disease was also determined in the case in which the plants had not been treated with the agent.
As a comparison, the respective wettable powders described above were diluted with water in predetermined concentration so as to prepare a compound (1b) liquid and a tolclofos-methyl liquid respectively and they were subjected to similar tests.

Assay [5] has as its system Rhizoctonia solani, pathogen of brown patch of turfgrass. Briefly: Turfgrass brown patch foliage application test (Test Example 3). The following applies: 14 days. On the procedure:
as §1, §2, §3, §4, §5, §6, §7
A plastic pot was filled with sandy soil. Turfgrass (bentgrass penncross) was disseminated and allowed to grow in a green house for 3 weeks. A wettable powder of compound (1b) and a wettable powder of tolclofos-methyl (Grancer Wettable Powder manufactured by Nihon Green & Garden Corporation) were respectively diluted with water and then tank-mixed so as to prepare tank-mixed liquids containing compound (1b) and tolclofos-methyl in predetermined concentration. […] The diseased area ratio of the pot plants on which the agents had been sprayed was determined as the incidence of disease at the time of checking and the control value was calculated by Equation 1 based on the incidence of disease thus determined. In order to calculate the control value, the incidence of disease was also determined in the case in which the plants had not been treated with the agent. […]

[6] abbreviates: compound (1b) 0.005 g/100 kg-seed alone.
[7] abbreviates: tolclofos-methyl 37.5 g/ha alone.

Regarding `CNC(=O)C(OC)c1ccccc1COc1cc(C)ccc1C` (racemic) [(1b)], the Actual control value in assay [1] (setting [6]) worked out at 25%; in assay [2] (compound (1b) 1 g/100 kg-seed alone) it was 30%; in assay [3] (setting [6]), 25%; in assay [5] (compound (1b) 9.4 g/ha alone), 30%; in assay [5] (compound (1b) 37.5 g/ha alone), 45%. Further, the “Actual control value (%)” value in assay [4] (compound (1b) 150 g/ha alone) was 67.2%.

With `COCC(=O)N(c1c(C)cccc1C)[C@H](C)C(=O)OC` [Mefenoxam, mefenoxam], the Actual control value in assay [1] (mefenoxam 0.00125 g/100 kg-seed alone) was 25%; in assay [1] (mefenoxam 0.005 g/100 kg-seed alone) it was 50%.

With `COP(=S)(OC)Oc1c(Cl)cc(C)cc1Cl` [Tolclofos-methyl, tolclofos-methyl], the Actual control value in assay [2] (tolclofos-methyl 10 g/100 kg-seed alone) was found to be 57%; in assay [5] (setting [7]), 30%. For the same compound, the “Actual control value (%)” value is recorded as 12.4% in assay [4] (setting [7]), 43.7% in assay [4] (tolclofos-methyl 150 g/ha alone) and 59.3% in assay [4] (tolclofos-methyl 600 g/ha alone).

As to `COCC(=O)N(c1c(C)cccc1C)C(C)C(=O)OC` (stereo not drawn) [Metalaxyl, metalaxyl], the values for the Actual control value in assay [3] (metalaxyl 0.00125 g/100 kg-seed alone) and in assay [3] (metalaxyl 0.0025 g/100 kg-seed alone) were 25% and 12.5%, respectively.
